As usually defined, the IC50 is the concentration needed to halve the response being measured. Low readings indicate greater potency in that assay, high ones weaker potency in that assay.

Among the data in patent publication US8822463B2, “Methylcyclohexane derivatives and uses thereof” (Sk Biopharmaceuticals Co., Ltd., priority 2010, dated 2014) are IC50 and inhibition in vivo values, retold here.

For assay [1], the system named is LPS-induced NO production in mouse microglia (BV2). The assay can be described thus: LPS-induced NO production inhibition test, mouse microglia (BV2). As to conditions: BV-2, BV2 cells, 20 ng/ml LPS, 24 hours, Griess reagent. It counts as cell-based. The protocol: (§1) Mouse monocytes (RAW) and mouse microglia (BV2) cells were cultured on a 96-well transparent plate (Nunc) in such a way that each of the wells contained 60,000 and 35,000 cells respectively. After 18 hours, when stabilized, the cells were treated with lipopolysaccharide (Sigma, USA, Cat No. L2630) in a morbid state derived from 20 ng/ml of Escherichia coli O111:B4 and 4 different concentrations (50 uM, 12.5 uM, 3.1 uM, and 0.8 uM) of the compounds synthesized according to Examples 1 to 55. Then, the cells were cultured for 24 hours, and a concentration of increased NO was measured. The NO concentration was determined by measuring absorption at a wavelength of 540 nm after a Griess reagent including 0.1% N-(1-naphthyl)ethylenediamine dihydrochloride, 1% sulfanilamide, and 2.5% phosphoric acid were added thereto.

In assay [2] the test system is neuropathic pain (mechanical allodynia) in rats with caudal nerve damage. The experiment in a line: Pain relief test using animal model (caudal nerve damage neuropathic pain, mechanical allodynia). In kind it is in vivo. The conditions noted are these: ip, rat, von Frey, reference concentration 30 mg/kg, read-out: Pain test results (% MPE, 50% tail withdrawal threshold). As to the method: Male rats (Sprague-Dawley, 150-200 g, 6-week old, Orient Bio Co., Ltd) were purchased and acclimated in an animal chamber for one week. The animal chamber was alternately turned on and off at a time interval of 12 hours, at a temperature of 22 to 25° C., and in a relative humidity of 40-60%, and water and feed was supplied ad libitum to the rats.
The rats were placed in a round acryl container (5.5 15, 6.5 18 cm, which varied according to the size of body) and only the tails thereof were taken out of the container and placed on a plate. To confirm a pain behavior corresponding to a mechanical stimulus, an up-down method (J. Neurosci. Methods 53:55-63) was performed using a von Frey filament so as to measure “50% tail withdrawal threshold.
During all the steps before surgery, anesthesia was maintained with a mixed gas including 2-3% enflurane and 95% oxygen.
The compounds were each prepared as a solution form by using 5% DMSO, 5% Cremophore, and 90% distilled water on a volumetric basis. Each of the solutions was intraperitoneally administered in a volume of 3 ml per kg of a rat. The concentration of the compounds was controlled according to a compound and the concentration of reference was 30 mg/kg. […]
Anti-allodynic effects of the compounds were described as mean±SEM, and were compared each other by referring to “% MPE (the percentage of maximum possible effect),” and analyzed using one-way ANOVA and Bonferroni's t-test. […] [% MPE=(the threshold with respect to time after the drug treatment−the threshold at 0 hr)/(15−the threshold at 0 hr)×100]

The test system of assay [3] is LPS-induced NO production in mouse monocytes (RAW). The assay can be described thus: LPS-induced NO production inhibition test, mouse monocytes (RAW). In kind it is cell-based. The conditions noted are these: Monocyte, RAW cells, 20 ng/ml LPS, 24 hours, Griess reagent. The protocol:
as §1
Background: Griess reagent forms a coloured azo dye with nitrite.

Setting [4] is: at 1 hour after intraperitoneal administration.
Setting [5] is: at 4 hours after intraperitoneal administration.

Read-outs that look alike come from different tables or passages of the source.

With `O=C(NCc1cccnc1)OC1CCC(COC(=O)N2CCCC2)CC1` (centres unmarked) [Example 8, pyrrolidine-1-carboxylic acid 4-(pyridin-3-ylmethylcarbamoyloxy)-cyclohexylmethyl ester], the IC50 is 5.8 µM in assay [1] and > 50 µM in assay [3]. For the same compound, in assay [2] (setting [4]), the inhibition in vivo worked out at 11%.
`Cc1cccc(CNC(=O)OC2CCC(COC(=O)N3CCCC3)CC2)n1` (centres unmarked) [Example 15, pyrrolidine-1-carboxylic acid 4-(6-methyl-pyridin-2-ylmethylcarbamoyloxy)-cyclohexylmethyl ester]: the values for the IC50 in assay [1] and in assay [3] were 19.4 µM and 19.9 µM, respectively. For the same compound, the inhibition in vivo in assay [2] (setting [4]) worked out at 29.2%.
As for `O=C(NCc1ccnc(Cl)c1)OC1CCC(COC(=O)N2CCCC2)CC1` (centres unmarked) [Example 16, pyrrolidine-1-carboxylic acid 4-(2-chloro-pyridin-4-ylmethylcarbamoyloxy)-cyclohexylmethyl ester], the IC50 was 10.8 µM in assay [1] and 27.9 µM in assay [3]. Also, in assay [2] (setting [5]), the inhibition in vivo was 16.4%.
As for `O=C(NCc1ccc(Cl)nc1)OC1CCC(COC(=O)N2CCCC2)CC1` (centres unmarked) [Example 17, pyrrolidine-1-carboxylic acid 4-(6-chloro-pyridin-3-ylmethylcarbamoyloxy)-cyclohexylmethyl ester], the IC50 in assay [1] amounted to 12.5 µM; in assay [3] it was 29.5 µM. In assay [2] (setting [4]), the inhibition in vivo turned out to be 5.8%.
Take `O=C(NCc1cccnc1Cl)OC1CCC(COC(=O)N2CCCC2)CC1` (centres unmarked) [Example 18, pyrrolidine-1-carboxylic acid 4-(2-chloro-pyridin-3-ylmethylcarbamoyloxy)-cyclohexylmethyl ester]: the results for the IC50 in assay [1] and in assay [3] were 18.3 µM and 5.7 µM, respectively. Also, the inhibition in vivo in assay [2] (setting [4]) was determined as 22.5%.
Regarding `O=C(Nc1ccncc1)OC1CCC(COC(=O)N2CCCC2)CC1` (centres unmarked) [Example 20, pyrrolidine-1-carboxylic acid 4-(pyridin-4-ylcarbamoyloxy)-cyclohexylmethyl ester], the IC50 in assay [1] came out at 37.9 µM; in assay [3] it was 50 µM. Also, in assay [2] (setting [5]), the inhibition in vivo amounted to 22%.
On to `O=C(Nc1ccccn1)OC1CCC(COC(=O)N2CCCC2)CC1` (centres unmarked) [Example 21, pyrrolidine-1-carboxylic acid 4-(pyridin-2-ylcarbamoyloxy)-cyclohexylmethyl ester], for which the concentration for half-maximal inhibition (IC50) in assay [1] came out at 44.8 µM; in assay [3], 15.9 µM. Moreover, in assay [2] (setting [4]), the inhibition in vivo turned out to be 35.2%.
Regarding `O=C(Nc1ccnc(Cl)c1)OC1CCC(COC(=O)N2CCCC2)CC1` (centres unmarked) [Example 23, pyrrolidine-1-carboxylic acid 4-(2-chloro-pyridin-4-ylcarbamoyloxy)-cyclohexylmethyl ester], the IC50 in assay [1] is > 50 µM; in assay [3] it was 28.6 µM. In assay [2] (setting [5]), the inhibition in vivo is 18.7%.
In the case of `O=C(NC1CCC(COC(=O)N2CCCC2)CC1)OCc1ccccn1` (centres unmarked) [Example 40, pyrrolidine-1-carboxylic acid 4-(pyridin-2-ylmethoxycarbonylamino)-cyclohexylmethyl ester], the IC50 in assay [1] and in assay [3] was > 50 µM in each case. Moreover, the inhibition in vivo in assay [2] (setting [5]) came out at 11%.
Turning to `O=C(NC1CCC(COC(=O)N2CCCC2)CC1)OCc1ccncc1` (centres unmarked) [Example 42, pyrrolidine-1-carboxylic acid 4-(pyridin-4-ylmethoxycarbonylamino)-cyclohexylmethyl ester], the IC50 was > 50 µM in assay [1] and 50 µM in assay [3]. Further, in assay [2] (setting [5]), the inhibition in vivo was 57%.
With `O=C(NC1CCC(COC(=O)N2CCCC2)CC1)OCc1cc(Cl)nc(Cl)c1` (centres unmarked) [Example 45, pyrrolidine-1-carboxylic acid 4-(2,6-dichloro-pyridin-4-ylmethoxycarbonylamino)-cyclohexylmethyl ester], the figures for the IC50 in assay [1] and in assay [3] were 7.5 µM and 9.9 µM, respectively.
As to `O=C(NC1CCC(COC(=O)N2CCCC2)CC1)OCc1cccc(Cl)n1` (centres unmarked) [Example 46, pyrrolidine-1-carboxylic acid 4-(6-chloro-pyridin-2-ylmethoxycarbonylamino)-cyclohexylmethyl ester], the IC50 came out at 26.3 µM in assay [1] and 32 µM in assay [3].
On to `O=C(NC1CCC(COC(=O)N2CCCC2)CC1)OCc1ccc(Cl)nc1` (centres unmarked) [Example 47, pyrrolidine-1-carboxylic acid 4-(6-chloro-pyridin-3-ylmethoxycarbonylamino)-cyclohexylmethyl ester], for which the IC50 was 21.1 µM in assay [1] and 13.1 µM in assay [3].
For `Cc1ncccc1COC(=O)NC1CCC(COC(=O)N2CCCC2)CC1` (centres unmarked) [Example 48, pyrrolidine-1-carboxylic acid 4-(2-methyl-pyridin-3-ylmethoxycarbonylamino)-cyclohexylmethyl ester] the same measures were 10.2 µM and 13.5 µM.
Take `Cc1cccc(COC(=O)NC2CCC(COC(=O)N3CCCC3)CC2)n1` (centres unmarked) [Example 49, pyrrolidine-1-carboxylic acid 4-(6-methyl-pyridin-2-ylmethoxycarbonylamino)-cyclohexylmethyl ester]: the half-inhibitory concentration (IC50) in assay [1] came to 10.2 µM; in assay [3] it was 12 µM.
Regarding `O=C(NC1CCC(COC(=O)N2CCCC2)CC1)OCc1ccc(C(F)(F)F)nc1` (centres unmarked) [Example 50, pyrrolidine-1-carboxylic acid 4-(6-trifluoromethyl-pyridin-3-ylmethoxycarbonylamino)-cyclohexylmethyl ester], the IC50 in assay [1] amounted to 14.2 µM; in assay [3], 5.7 µM.
For the compound `O=C(NC1CCC(COC(=O)N2CCCC2)CC1)OCc1cccc[n+]1[O-]` (centres unmarked) [Example 51, pyrrolidine-1-carboxylic acid 4-(1-oxy-pyridin-2-ylmethoxycarbonylamino)-cyclohexylmethyl ester], the figures for the IC50 in assay [1] and in assay [3] were > 50 µM and 50 µM, respectively.
On to `O=C(NC1CCC(COC(=O)N2CCCC2)CC1)OCc1ccc[n+]([O-])c1` (centres unmarked) [Example 52, pyrrolidine-1-carboxylic acid 4-(1-oxy-pyridin-3-ylmethoxycarbonylamino)-cyclohexylmethyl ester], for which the IC50 was > 50 µM in assay [1] and 22.3 µM in assay [3].
As for `O=C(NC1CCC(COC(=O)N2CCCC2)CC1)OCc1cc[n+]([O-])cc1` (centres unmarked) [Example 53, pyrrolidine-1-carboxylic acid 4-(1-oxy-pyridin-4-ylmethoxycarbonylamino)-cyclohexylmethyl ester], the figures for the IC50 in assay [1] and in assay [3] were > 50 µM and 33.9 µM, respectively.
With `O=C(NCc1ccncc1)OC1CCC(CNC(=O)N2CCCC2)CC1` (centres unmarked) [Example 54, pyridin-4-ylmethyl-carbamic acid 4-{[(pyrrolidine-1-carbonyl)-amino]-methyl}-cyclohexyl ester], the IC50 is > 50 µM in assay [1] and 48.7 µM in assay [3]. For the same compound, the inhibition in vivo in assay [2] (setting [4]) came out at 10.5%.
On to `O=C(NCc1ccncc1)OC1CCC(CNC(=O)C2CCCC2)CC1` (centres unmarked) [Example 55, pyridin-4-ylmethyl-carbamic acid 4-[(cyclopentanecarbonyl-amino)-methyl]-cyclohexyl ester], for which the IC50 in assay [1] was > 50 µM; in assay [3] it was 25.6 µM.
